Assays:
S. aureus MW2 = test: RNAseq differential gene expression; assay type: cell-based, Staphylococcus aureus; conditions: 0.5× MIC, 30 min
Description: 553 For RNAseq studies, we followed the recommended procedure by Novogene (Sacramento,
554 CA, USA) (22). In brief, we used exponential cultures of S. aureus MW2 grown in TSB medium
555 adjusted to OD600=0.4. We treated 10 ml of the bacterial culture with 0.5× MIC of CIT-8 or water
556 (as a negative control) for 30 min at 37°C (180 rpm). After that, we washed the bacteria three times
557 with PBS and stored the pellet at -80°C. We isolated total RNA from the pellet and checked the
558 purity using the NanoPhotometer® spectrophotometer (Implen, CA, USA). We assessed RNA
559 integrity and concentration using the RNA Nano 6000 Assay Kit following manufacturer
560 instructions in a Bioanalyzer 2100 system (Agilent Technologies, CA, USA). We evaluated RNA
561 degradation and contamination on 1% agarose gels. To prepare libraries for transcriptome
562 sequencing, we used 1 µg RNA per sample as input material and generated sequencing libraries
563 using NEBNext® UltraTM RNA Library Prep Kit for Illumina® (NEB, MA, USA) following
564 manufacturer’s recommendations and added index codes to attribute sequences to each sample.
565 Briefly, we purified mRNA from total RNA using poly-T oligo-attached magnetic beads, followed
566 by fragmentation using divalent cations under elevated temperature in NEBNext First Strand
567 Synthesis Reaction Buffer (5×). To synthesize cDNA, we used random hexamer primers and M-
568 MuLV Reverse Transcriptase (RNase H-) to create the first strand, followed by DNA Polymerase
569 I and RNase H to create the second strand (23). The remaining overhangs were converted into
570 blunt ends using exonuclease/polymerase activities. We adenylated the 3’ ends of the DNA
571 fragments, and further ligated NEBNext Adaptors with hairpin loop structures to prepare for
572 hybridization. To select cDNA fragments of preferred length (150-200 bp), we purified the whole
573 library fragments with AMPure XP system (Beckman Coulter, CA, USA). Next, to the size-
574 selected, adaptor ligated cDNA, we added 3 µl USER Enzyme (NEB, MA, USA) at 37°C for 15
575 min followed by 5 min at 95°C before carrying out the polymerase chain reaction (PCR). We
576 performed the PCR with Phusion High-Fidelity DNA polymerase, Universal PCR primers, and
577 Index (X) Primer. Finally, we purified the PCR products with an AMPure XP system (Beckman
578 Coulter, CA, USA) and library quality was assessed on the Agilent Bioanalyzer 2100 system
579 (Agilent Technologies, CA, USA). […]

HepG2 cells = test: Mammalian cell cytotoxicity assay
Description: 410 the HepG2 cells at 37°C in 5% CO2 in Dulbecco’s Modified Eagle Medium (DMEM) (Gibco, MA,
We harvested and resuspended cells in fresh DMEM

H-GLFKVIKKLLKVI-NH2 [CIT-8]
Downregulation of tRNAGln (S. aureus MW2): 8.5 fold | Downregulation of tRNAarg (S. aureus MW2): 7.7 fold | Downregulation of tRNAcys (S. aureus MW2): 6.8 fold | Downregulation of tRNAser (S. aureus MW2): 8.4 fold | Upregulation of pdxS (S. aureus MW2): 5.3 fold | Upregulation of purH (S. aureus MW2): 3.6 fold | Upregulation of purL (S. aureus MW2): 5.2 fold | Upregulation of purQ (S. aureus MW2): 5.0 fold | Upregulation of purS (S. aureus MW2): 5.0 fold | Number of genes downregulated by at least 2-fold (S. aureus MW2; P < 0.05): 267 genes | Number of genes upregulated by more than 2-fold (S. aureus MW2; P < 0.05): 179 genes | HepG2 cell viability, Sup. Fig. 4B (HepG2 cells; 4 μg/ml, replicate 1): 110.665 | HepG2 cell viability, Sup. Fig. 4B (HepG2 cells; 4 μg/ml, replicate 2): 94.3717 | HepG2 cell viability, Sup. Fig. 4B (HepG2 cells; 4 μg/ml, replicate 3): 107.525 | HepG2 cell viability, Sup. Fig. 4B (HepG2 cells; 8 μg/ml, replicate 1): 104.83 | HepG2 cell viability, Sup. Fig. 4B (HepG2 cells; 8 μg/ml, replicate 2): 93.4852 | HepG2 cell viability, Sup. Fig. 4B (HepG2 cells; 8 μg/ml, replicate 3): 105.572 | HepG2 cell viability, Sup. Fig. 4B (HepG2 cells; 16 μg/ml, replicate 1): 122.471 | HepG2 cell viability, Sup. Fig. 4B (HepG2 cells; 16 μg/ml, replicate 2): 104.62 | HepG2 cell viability, Sup. Fig. 4B (HepG2 cells; 16 μg/ml, replicate 3): 109.473 | HepG2 cell viability, Sup. Fig. 4B (HepG2 cells; 32 μg/ml, replicate 1): 107.545 | HepG2 cell viability, Sup. Fig. 4B (HepG2 cells; 32 μg/ml, replicate 2): 100.768 | HepG2 cell viability, Sup. Fig. 4B (HepG2 cells; 32 μg/ml, replicate 3): 106.994 | HepG2 cell viability, Sup. Fig. 4B (HepG2 cells; 64 μg/ml, replicate 1): 70.5897 | HepG2 cell viability, Sup. Fig. 4B (HepG2 cells; 64 μg/ml, replicate 2): 64.1784 | HepG2 cell viability, Sup. Fig. 4B (HepG2 cells; 64 μg/ml, replicate 3): 64.2134 | HepG2 cell viability, Sup. Fig. 4B (HepG2 cells; 128 μg/ml, replicate 1): 32.858 | HepG2 cell viability, Sup. Fig. 4B (HepG2 cells; 128 μg/ml, replicate 2): 28.9912 | HepG2 cell viability, Sup. Fig. 4B (HepG2 cells; 128 μg/ml, replicate 3): 25.6954 | LD50 (concentration needed to kill 50% of HEPG2 cells) (HepG2 cells; human liver-derived HEPG2 cells): 96 µg/mL

Reference: publication PMC12165799, “Antimicrobial peptide developed with machine learning sequence optimization targets drug resistant Staphylococcus aureus in mice” (The Journal of Clinical Investigation, 2025)
